{"source": "patent US9724537B2", "about": "“Abnormal electrical conduction blocking apparatus using photodynamic therapy (PDT)” (Keio University, priority 2006, dated 2017)", "key": {"[1]": {"test_system": "cultured cardiac muscle cells derived from an SD rat", "experiment": "Changes in intracellular Ca^2+ concentration during PDT (Fluo-4AM)", "type": "cell-based", "protocol": "Intracellular Ca^2+ concentration changes in cells on day 1 after seeding were measured with the four protocols described later. Cultured cardiac muscle cells derived from an SD rat were used. As a medium for cell culture, D-MEM/F12+10% FBS was used. Before subjected to the experiment, cardiac muscle cells in suspension at 1.6×10^5 cells/ml were seeded on a 24-well plate with a glass bottom at 0.5 ml/well (8.0×10^4 cells/well) and cultured in an incubator (37° C., 5% CO2) for one day.\nFurther, MEM+10% FBS containing 2.2 mM Ca^2+ was used as a normal medium, and SMEM+10% FBS containing 364 μM Ca^2+ was used as a Ca^2+-free medium.\nIntracellular Ca^2+ concentrations were measured using Fluo-4AM (Molecular Probe). 55 μl of DMSO (Dojindo Laboratories, pure solvent for fluorescence analysis) was added to 50 μg of Fluo-4AM, 10 μl of this mixture was added to 1 ml of a medium for measurement (normal medium or Ca^2+-free medium) at 8 μM, and cardiac muscle cells were brought into loading for 30 min. Fluo4 was excited with Ar laser (wavelength, 488 nm), and a fluorescence image at 510 to 560 nm was obtained with a CCD camera (Nippon Roper Co., Ltd., Retiga 2000R). 10 photos were taken with an exposure time of 10 s, and then PDT was performed by irradiation with a semiconductor laser beam (peak wavelength, 670.8 nm; power, 150 mW/cm^2; continuous light; total energy density, 5 or 10 J/cm^2), and a total of 40 photos (for approx. 408 s) were continuously taken during and after PDT. The image analysis was performed using Image J, an image analysis software, and changes in intracellular cumulative fluorescence on each slide were calculated. Assuming the initial cumulative fluorescence F0 as 1, fluorescence changes were calculated by F/F0. Further, cells were incubated at temperature of 37° C. using a hot plate (Tokai Hit) during observation.\nProtocol 1 (Extracellular Distribution of Talaporfin Sodium, Extracellular Normal Ca^2+ Concentration)\n(§1) Fluo-4AM (normal medium solution) is loaded with each well at room temperature for 30 min, then talaporfin sodium (normal medium) adjusted beforehand to various concentrations is added at 0.5 ml/well, and observation is performed immediately after addition.\nProtocol 2 (Intracellular Distribution of Talaporfin Sodium, Extracellular Normal Ca^2+ Concentration)\nas §1, with “performed” for “performed immediately”, “the medium is replaced with a normal medium after 30 min of loading.” for “addition.”\nProtocol 3 (Extracellular Distribution of Talaporfin Sodium, No Extracellular Ca^2+) […]"}, "[2]": {"test_system": "rat atrioventricular node", "experiment": "Atrioventricular block experiment by PDT in in vivo system", "parameters": "species or system Wistar rat", "protocol": "Wistar rats (male, 8 weeks old) were anesthetized by inhalation of diethyl ether, four limbs and front teeth were fixed, a tube was inserted into the bronchial tube, and an artificial ventilator (Natsume Seisakusho Co., Ltd.) and a forane vaporizer anesthesia apparatus (Shinano Instrument, Co., Ltd.) were introduced into the body. Thoracotomy was performed between the right chest rib, and the experiment was performed while the heart was exposed.\nA solution obtained by dissolving Laserphyrin in 5 ml of physiological saline was administered to venous blood from the right ventricular cavity. The photosensitizer dose (D) and the interval to photoradiation in each experiment were as follows.\nExperiment 1: D=2 mg/kg, laser irradiation at interval of 5 and 60 min\nExperiment 2: D=10 mg/kg, laser irradiation at interval of 2 and 30 min\nA semiconductor laser beam (SONY, wavelength peak, 670 nm band) was transmitted using a quartz fiber with a laser intensity of 500 mW/cm^2 at the end. The end was attached to a portion in the vicinity of the base of the aorta, and photoradiation was performed towards the atrioventricular node (existing in a portion approx. 3 mm deep from the surface) in the right atrial inner wall for 10 min with the total dose of laser irradiation of 300 J/cm^2 (FIG. 30).\nA needle electrode was inserted into four limbs of a rat, electrocardiogram leads I, II, and III were induced with an electrocardiograph (Nihon Kohden Corporation), and signals were recorded using a biosignal recording/analyzing apparatus and analyzed (FIG. 31). FIG. 31 is a schematic view showing an in vivo experimental system.\nAfter completion of the experiment, the rat chest was closed and sutured. Then, a normal feed and water were given and allowed to survive, and anesthetized again at approx. 2 weeks so that electrocardiography should be performed.\nThe heart sample of Experiment 1 was isolated after electrocardiography at 2 weeks (the isolation method was the same as in Example 6), 4% paraformaldehyde was introduced from the coronary artery, and the perfusion-fixed sample was immersed in approx. 40 ml of the solution and left on a mix roller overnight. Then, a HE sample and an Azan stained specimen at a laser irradiation site were prepared and observed under a microscope."}, "[3]": {"conditions": "Experiment 2: 10 mg/kg, 300 J/cm^2"}, "[4]": {"conditions": "Experiment 2: 10 mg/kg, interval 30 min, 300 J/cm^2"}}, "note": "Where “and” joins values, the source holds several entries; their conditions need not be identical. Equal entries are not always repeated."}
{"smiles": "C=Cc1c(C)c2cc3nc(c(CC(=O)N[C@@H](CC(=O)O)C(=O)O)c4[nH]c(cc5nc(cc1[nH]2)C(C)=C5CC)c(C)c4C(=O)O)[C@@H](CCC(=O)O)[C@@H]3C", "note": "[talaporfin sodium, mono-L-aspartyl chlorine 6]", "values": [{"measurement": "cell morphology during and after PDT", "setting": "[1]; FIG. 23", "result": "1) swelling of the cell itself and 2) growth of “bobble” were observed and Cell morphology did not virtually change after PDT"}, {"measurement": "change in intracellular Ca^2+ concentration during PDT", "setting": "[1]; no extracellular Ca^2+, 30 μg/ml, 10 J/cm2", "result": "the intracellular Ca^2+ concentrations hardly changed"}, {"measurement": "change in intracellular Ca^2+ concentration during PDT", "setting": "[1]; normal extracellular Ca^2+ concentration", "result": "Rapid increases in the intracellular Ca^2+ concentrations were observed immediately after performing PDT"}, {"measurement": "change in intracellular Ca^2+ concentration, photosensitizer outside vs inside the cell", "setting": "[1]; normal extracellular Ca^2+, 0 min loading vs 30 min loading", "result": "rapid changes in the Ca^2+ concentration were confirmed when the photosensitizer exists only outside the cell"}, {"measurement": "electrocardiogram after 2 weeks", "setting": "[2]; Experiment 1: 2 mg/kg, 300 J/cm^2", "result": "the 2:1 atrioventricular block disappeared, and a normal atrioventricular conduction was confirmed"}, {"measurement": "histology (Azan stain) at laser irradiation site at 2 weeks", "setting": "[2]; Experiment 1: 2 mg/kg, 300 J/cm^2, FIG. 36", "result": "a scar tissue (a damaged cellular tissue was replaced with the surrounding collagenic fibers) is observed"}, {"measurement": "atrioventricular block (electrocardiogram)", "setting": "[2]; Experiment 1: 2 mg/kg, interval 5 min, 300 J/cm^2", "result": "an atrioventricular block disappeared during the process of photoradiation"}, {"measurement": "atrioventricular block (electrocardiogram) after photoradiation", "setting": "[2]; Experiment 1: 2 mg/kg, interval 60 min, 300 J/cm^2", "result": "2:1 atrioventricular block"}, {"measurement": "completeness of conduction block", "setting": "[2]; Experiment 1, laser irradiation dose 300 J/cm^2", "result": "the conduction block was incomplete"}, {"measurement": "electrocardiogram at 2 weeks", "setting": "[2]; [3]", "result": "a finding of a complete atrioventricular block"}, {"measurement": "time the conduction block effect by PDT was maintained", "setting": "[2]; [3]", "result": 2, "unit": "weeks"}, {"measurement": "atrioventricular block (electrocardiogram)", "setting": "[2]; Experiment 2: 10 mg/kg, interval 2 min, 300 J/cm^2", "result": "a 2:1 atrioventricular block occurred, but was resolved thereafter"}, {"measurement": "atrioventricular block (electrocardiogram)", "setting": "[2]; [4]", "result": "a 2:1 atrioventricular block and a complete atrioventricular block occurred from immediately after photoradiation"}, {"measurement": "electrocardiogram finding after completion of photoradiation", "setting": "[2]; [4]", "result": "extrasystoles of the ventricle were observed"}]}
